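Growth conditions: 96-well plates. Treatment: test compound, 48 hours, 5 concentrations. Analysis: linear interpolation between bracketing concentrations; unreached endpoints set to highest concentration. Abbreviation: GI50, concentration required for 50% inhibition of growth. TGI: concentration producing complete growth inhibition.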
Experiments:
Assay in all cases: inhibition of tumour cell growth, NCI panel, 48 h
LOX IMVI melanoma = tested on: LOX IMVI melanoma
K-562 leukemia = tested on: K-562 leukemia
IGROV1 ovarian = tested on: IGROV1 ovarian
NCI/ADR-RES ovarian = tested on: NCI/ADR-RES ovarian
MCF7 breast = tested on: MCF7 breast
COLO 205 colon = tested on: COLO 205 colon
HOP-92 NSCLC = tested on: HOP-92 NSCLC
UO-31 renal = tested on: UO-31 renal
OVCAR-4 ovarian = tested on: OVCAR-4 ovarian
RPMI-8226 leukemia = tested on: RPMI-8226 leukemia
SF-539 CNS = tested on: SF-539 CNS
SF-268 CNS = tested on: SF-268 CNS
BT-549 breast = tested on: BT-549 breast
OVCAR-8 ovarian = tested on: OVCAR-8 ovarian
NCI-H522 lung = tested on: NCI-H522 lung
CCRF-CEM leukemia = tested on: CCRF-CEM leukemia
HT29 colon = tested on: HT29 colon
NCI-H23 lung = tested on: NCI-H23 lung
MALME-3M melanoma = tested on: MALME-3M melanoma
PC-3 prostate = tested on: PC-3 prostate
SW-620 colon = tested on: SW-620 colon
HOP-62 NSCLC = tested on: HOP-62 NSCLC
OVCAR-5 ovarian = tested on: OVCAR-5 ovarian
RXF 393 renal = tested on: RXF 393 renal
HS 578T breast = tested on: HS 578T breast
MDA-MB-435 = tested on: MDA-MB-435
SK-MEL-2 melanoma = tested on: SK-MEL-2 melanoma
SF-295 CNS = tested on: SF-295 CNS
A498 renal = tested on: A498 renal
SNB-75 CNS = tested on: SNB-75 CNS
786-0 renal = tested on: 786-0 renal
SNB-19 CNS = tested on: SNB-19 CNS
NCI-H226 lung = tested on: NCI-H226 lung
TK-10 renal = tested on: TK-10 renal
SK-MEL-28 melanoma = tested on: SK-MEL-28 melanoma
HCT-15 colon = tested on: HCT-15 colon
OVCAR-3 ovarian = tested on: OVCAR-3 ovarian
UACC-62 melanoma = tested on: UACC-62 melanoma
CAKI-1 renal = tested on: CAKI-1 renal
SK-OV-3 ovarian = tested on: SK-OV-3 ovarian
T-47D breast = tested on: T-47D breast
A549 NSCLC = tested on: A549 NSCLC
ACHN renal = tested on: ACHN renal
MOLT-4 leukemia = tested on: MOLT-4 leukemia
KM12 colon = tested on: KM12 colon
SN12C renal = tested on: SN12C renal
SR leukemia = tested on: SR leukemia
HCC-2998 colon = tested on: HCC-2998 colon
M14 melanoma = tested on: M14 melanoma
DU-145 prostate = tested on: DU-145 prostate
SK-MEL-5 melanoma = tested on: SK-MEL-5 melanoma
MDA-MB-231 breast = tested on: MDA-MB-231 breast
NCI-H460 lung = tested on: NCI-H460 lung
HCT-116 colon = tested on: HCT-116 colon
EKVX NSCLC = tested on: EKVX NSCLC
U251 CNS = tested on: U251 CNS
UACC-257 melanoma = tested on: UACC-257 melanoma
HL-60(TB) leukemia = tested on: HL-60(TB) leukemia

C[C@H]1CNC(=O)c2cnn3ccc(nc23)N[C@H](C)c2cc(F)ccc2O1
GI50 (LOX IMVI melanoma): 334 nM | TGI (LOX IMVI melanoma): 1430 nM | GI50 (K-562 leukemia): 3640 nM | TGI (K-562 leukemia): > 100000 nM | GI50 (IGROV1 ovarian): 292 nM | TGI (IGROV1 ovarian): 1920 nM | GI50 (NCI/ADR-RES ovarian): 8630 nM | TGI (NCI/ADR-RES ovarian): 47400 nM | GI50 (MCF7 breast): 381 nM | TGI (MCF7 breast): > 100000 nM | GI50 (COLO 205 colon): 779 nM | TGI (COLO 205 colon): 4330 nM | GI50 (HOP-92 NSCLC): 184 nM | TGI (HOP-92 NSCLC): 998 nM | GI50 (UO-31 renal): 1210 nM | TGI (UO-31 renal): 3560 nM | GI50 (OVCAR-4 ovarian): 1670 nM | TGI (OVCAR-4 ovarian): 26600 nM | GI50 (RPMI-8226 leukemia): 10300 nM | TGI (RPMI-8226 leukemia): 41600 nM | GI50 (SF-539 CNS): 743 nM | TGI (SF-539 CNS): 3790 nM | GI50 (SF-268 CNS): 809 nM | TGI (SF-268 CNS): 3790 nM | GI50 (BT-549 breast): 1100 nM | TGI (BT-549 breast): 2520 nM | GI50 (OVCAR-8 ovarian): 2540 nM | TGI (OVCAR-8 ovarian): > 55100 nM | GI50 (NCI-H522 lung): 2430 nM | TGI (NCI-H522 lung): 24400 nM | GI50 (CCRF-CEM leukemia): 444 nM | TGI (CCRF-CEM leukemia): > 67200 nM | GI50 (HT29 colon): 457 nM | GI50 (NCI-H23 lung): 1930 nM | TGI (NCI-H23 lung): 53100 nM | GI50 (MALME-3M melanoma): 16600 nM | TGI (MALME-3M melanoma): > 100000 nM | GI50 (PC-3 prostate): 1530 nM | TGI (PC-3 prostate): > 67000 nM | GI50 (SW-620 colon): 517 nM | TGI (SW-620 colon): > 55100 nM | GI50 (HOP-62 NSCLC): 1030 nM | TGI (HOP-62 NSCLC): > 21500 nM | GI50 (OVCAR-5 ovarian): 385 nM | TGI (OVCAR-5 ovarian): 9560 nM | GI50 (RXF 393 renal): 282 nM | TGI (RXF 393 renal): 1260 nM | GI50 (HS 578T breast): 325 nM | TGI (HS 578T breast): 2760 nM | GI50 (MDA-MB-435): 8840 nM | TGI (MDA-MB-435): > 91200 nM | GI50 (SK-MEL-2 melanoma): 3540 nM | TGI (SK-MEL-2 melanoma): 24000 nM | GI50 (SF-295 CNS): 595 nM | TGI (SF-295 CNS): 8150 nM | GI50 (A498 renal): 216 nM | TGI (A498 renal): 886 nM | GI50 (SNB-75 CNS): 146 nM | TGI (SNB-75 CNS): 1050 nM | GI50 (786-0 renal): 495 nM | TGI (786-0 renal): 2110 nM | GI50 (SNB-19 CNS): 2170 nM | TGI (SNB-19 CNS): 47400 nM | GI50 (NCI-H226 lung): 1030 nM | TGI (NCI-H226 lung): 3830 nM | GI50 (TK-10 renal): 749 nM | TGI (TK-10 renal): 3120 nM | GI50 (SK-MEL-28 melanoma): 18500 nM | TGI (SK-MEL-28 melanoma): > 100000 nM | GI50 (HCT-15 colon): 2050 nM | TGI (HCT-15 colon): 13400 nM | GI50 (OVCAR-3 ovarian): 1320 nM | TGI (OVCAR-3 ovarian): 19600 nM | GI50 (UACC-62 melanoma): 2320 nM | TGI (UACC-62 melanoma): 39000 nM | GI50 (CAKI-1 renal): 343 nM | TGI (CAKI-1 renal): 1590 nM | GI50 (SK-OV-3 ovarian): 641 nM | TGI (SK-OV-3 ovarian): 10000 nM | GI50 (T-47D breast): 1600 nM | TGI (T-47D breast): > 93500 nM | GI50 (A549 NSCLC): 937 nM | TGI (A549 NSCLC): 16400 nM | GI50 (ACHN renal): 558 nM | TGI (ACHN renal): 4360 nM | GI50 (MOLT-4 leukemia): 1960 nM | TGI (MOLT-4 leukemia): 42200 nM | TGI (KM12 colon): > 100000 nM | GI50 (SN12C renal): 815 nM | TGI (SN12C renal): 12800 nM | GI50 (SR leukemia): 50 nM | TGI (SR leukemia): 19200 nM | GI50 (HCC-2998 colon): 3260 nM | TGI (HCC-2998 colon): 70300 nM | GI50 (M14 melanoma): 1780 nM | TGI (M14 melanoma): > 100000 nM | GI50 (DU-145 prostate): 2260 nM | TGI (DU-145 prostate): 12800 nM | GI50 (SK-MEL-5 melanoma): 8910 nM | TGI (SK-MEL-5 melanoma): 32300 nM | GI50 (MDA-MB-231 breast): 514 nM | TGI (MDA-MB-231 breast): 13000 nM | GI50 (NCI-H460 lung): 946 nM | TGI (NCI-H460 lung): 25100 nM | GI50 (HCT-116 colon): 559 nM | TGI (HCT-116 colon): 16900 nM | GI50 (EKVX NSCLC): 1240 nM | TGI (EKVX NSCLC): > 75400 nM | GI50 (U251 CNS): 3360 nM | TGI (U251 CNS): > 100000 nM | GI50 (UACC-257 melanoma): 6450 nM | TGI (UACC-257 melanoma): > 94000 nM | GI50 (HL-60(TB) leukemia): 4660 nM | TGI (HL-60(TB) leukemia): > 62500 nM
